The subject of one data set is cells. Conditions: background; cited from earlier work.
The subject of the next data set is liver failure. The settings on record: background; CN201110025509.8 and CN201110025516.8; cited from earlier work.
Data set [1] can be described thus: Stability of F573 solution before and after high-temperature sterilization. Format: physicochemical. The settings on record: for Content / Related substances: propylene glycol/water (80%/20%), pH 4.0-5.0. As for the experimental part:
1.2 Investigation of Stability of F573 Injection
F573 was dissolved in the solution of propylene glycol/water (80%/20%; pH was adjusted to 4.0-5.0), and the resulting mixture was sterilized at a high temperature of 120° C. for 15 min and then examined (the results are shown in Table A-2 below).

Data set [2] in a line: Screening injection solvents for F573 (solvent effects, dissolution behavior). The class given is physicochemical. Conditions: 2 ml:30 mg F573. The source says:
1.1 for the Purpose of Preparing F573 Injection, Screening Injection Solvents

Setting [3] is: After sterilization at 120° C. for 15 min.
Setting [4] is: after the high-temperature sterilization.

“Also recorded” adds a separate entry of the source.

As to `CC(C)[C@H](NC(=O)OCc1ccccc1)C(=O)NC(CC(=O)O)C(=O)CF` (stereo partly drawn) [F573, 3-(2-benzyloxycarbonylamino-3-methyl-butanamido)-5-fluoro-4-oxo-pentanoic acid], in the data set with cells, the Toxicity on cells result is given as “no significant toxicity on cells”. In addition, the “Efficacy on liver failure” value in the data set on liver failure is reported as “remarkable efficacy on liver failure”. The Content is on record as 8.82 mg/mL in data set [1] (setting [3]) and 16.08 mg/mL in data set [1] (Before sterilization). Moreover, the Related substances in data set [1] (setting [3]) was determined as 47.22%; in data set [1] (Before sterilization) it was 1.80%. For the same molecule, the “Increase in the related substances” value in data set [1] (setting [4]) is recorded as “about 50%”. The “Reduction in the F573 content” value in data set [1] (setting [4]) is given as “about 50%”. Besides, the “Stability in aqueous solution” value in data set [1] (aqueous solution, moist heat sterilization) is “poor stability”. Further, the Dissolution behavior entry in data set [2] (Ethanol/water (10%/90%)) is reported as “Turbid”; in data set [2] (Oil for injection, Vegetable oil), “Turbid”; in data set [2] (Propylene glycol/water (50%/50%)), “Turbid”; in data set [2] (Propylene glycol/water (80%/20%), adjusting pH to 4.0-5.0), “completely dissolved; also recorded: Clarified”; in data set [2] (Water for injection, adjusting pH to 2.0-2.5), “Turbid”; in data set [2] (Water for injection, adjusting pH to 4.0-5.0), “Turbid”.

(Values after US20250313593A1, “DIPEPTIDE DERIVATIVE COMPOSITION, PREPARATION METHOD THEREFOR, AND USE THEREOF” (BEIJING CONTINENT PHARMACEUTICALS CO., LTD, priority 2022, published 2025).)
